Source: patent EP0327492A1, “Herbicidally and plantgrowth regulatory active quinoline and pyrindine compounds” (CIBA-GEIGY AG, priority 1988, dated 1989)

Tests used:
Type in all cases: in vivo
Baumwolle = test: Post-emergent herbicidal action (B.3), crop tolerance; conditions: 500 bis 2000 [g/ha], 15 days after treatment
Procedure: (§1) Im Gewächshaus wird unmittelbar nach der Einsaat der Versuchspflanzen in Saatschalen die Erdoberfläche mit einer wässrigen Dispersion der Wirkstoffe, erhalten aus einem 25 %igen Emulsionskonzentrat behandelt. Es werden Konzentrationen von 2000-500 g Wirksubstanz/Hektar angewendet. Die Saatschalen werden im Gewächshaus bei 22-25° C und 50-70 % relativer Luftfeuchtigkeit gehalten und der Versuch nach 3 Wochen ausgewertet und die Resultate nach folgender Notenskala ausgewertet. • 1 Pflanze hat nicht gekeimt oder ist eingegangen • 2-3 sehr starke Schäden • 4 starke Schäden • 5 mittlere Schäden, die Pflanzen sind verkümmert • 6 Schäden, die Pflanze kann regenerieren • 7-8 leichte Schäden • 9 normales Wachstum, wie das unbehandelter Pflanzen
(§2) Boniturnoten von 1 bis 4 (insbesondere von 1 bis 3) weisen auf eine gute bis sehr gute Herbizidwirkung hin. Boniturnoten von 6 bis 9 (insbesondere 7 bis 9) weisen auf eine gute Toleranz (insbesondere bei Kulturpflanzen) hin.
(§3) Eine Anzahl Unkräuter, sowohl monokotyle wie dikotyle, werden nach dem Auflaufen (im 4- bis 6-Blattstadium) mit einer wässrigen Wirkstoffdispersion in einer Dosierung von 2000-500 g Wirksubstanz pro Hektar auf die Pflanzen gespritzt und diese bei 24°-26°C und 45-60 % relativer Luftfeuchtigkeit gehalten. 15 Tage nach der Behandlung wird der Versuch nach dem in Beispiel B.2. gegebenen Massstab bewertet.

Soja [1] = test: as above; conditions: 500 bis 2000 [g/ha], 15 days after treatment
Procedure: as §1, §2, §3

Chrysanthe. leuc. [2] = test: Pre-emergent herbicidal action (B.2); conditions: 500 bis 2000 [g/ha], evaluated after 3 weeks
Procedure: as §1, §2

Echinochloa crus galli [3] = test: Pre-emergent herbicidal action (B.2); conditions: 500 bis 2000 [g/ha], evaluated after 3 weeks
Procedure: as §1, §2

Digitaria sang. [4] = test: Pre-emergent herbicidal action (B.2); conditions: 500 bis 2000 [g/ha], evaluated after 3 weeks
Procedure: as §1, §2

Sorghum halep. [5] = test: Pre-emergent herbicidal action (B.2); conditions: 500 bis 2000 [g/ha], evaluated after 3 weeks
Procedure: as §1, §2

Sinapis [6] = test: Pre-emergent herbicidal action (B.2); conditions: 500 bis 2000 [g/ha], evaluated after 3 weeks
Procedure: as §1, §2

Bromus tectorum [7] = test: Pre-emergent herbicidal action (B.2); conditions: 500 bis 2000 [g/ha], evaluated after 3 weeks
Procedure: as §1, §2

Alopecurus myos. [8] = test: Pre-emergent herbicidal action (B.2); conditions: 500 bis 2000 [g/ha], evaluated after 3 weeks
Procedure: as §1, §2

Galium aparine [9] = test: Pre-emergent herbicidal action (B.2); conditions: 500 bis 2000 [g/ha], evaluated after 3 weeks
Procedure: as §1, §2

Veronica Sp. [10] = test: Pre-emergent herbicidal action (B.2); conditions: 500 bis 2000 [g/ha], evaluated after 3 weeks
Procedure: as §1, §2

Amaranthus ret. [11] = test: Pre-emergent herbicidal action (B.2); conditions: 500 bis 2000 [g/ha], evaluated after 3 weeks
Procedure: as §1, §2

Avena fatua [12] = test: Pre-emergent herbicidal action (B.2); conditions: 500 bis 2000 [g/ha], evaluated after 3 weeks
Procedure: as §1, §2

Solanum nigrum [13] = test: Pre-emergent herbicidal action (B.2); conditions: 500 bis 2000 [g/ha], evaluated after 3 weeks
Procedure: as §1, §2

Chenopodium Sp. [14] = test: Pre-emergent herbicidal action (B.2); conditions: 500 bis 2000 [g/ha], evaluated after 3 weeks
Procedure: as §1, §2

Stellaria [15] = test: Pre-emergent herbicidal action (B.2); conditions: 500 bis 2000 [g/ha], evaluated after 3 weeks
Procedure: as §1, §2

Ipomoea = test: Pre-emergent herbicidal action (B.2); conditions: 500 bis 2000 [g/ha], evaluated after 3 weeks
Procedure: as §1, §2

Abutilon [16] = test: Pre-emergent herbicidal action (B.2); conditions: 500 bis 2000 [g/ha], evaluated after 3 weeks
Procedure: as §1, §2

Lolium perenne [17] = test: Pre-emergent herbicidal action (B.2); conditions: 500 bis 2000 [g/ha], evaluated after 3 weeks
Procedure: as §1, §2

Soja [18] = test: Pre-emergent herbicidal action (B.2), crop tolerance; conditions: 500 bis 2000 [g/ha], evaluated after 3 weeks
Procedure: as §1, §2

Chrysanthe. leuc. [19] = test: Post-emergent herbicidal action, contact herbicide (B.3); conditions: 500 bis 2000 [g/ha], 15 days after treatment
Summary of the method: (§4)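 Contact activity is rated on a 1-9 scale, lower meaning more damage, 15 days after weeds at 4-6 leaves receive a spray of 2000-500 g active ingredient/ha in water. Conditions during the test are 24-26 °C and 45-60% relative humidity.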

Echinochloa crus galli [20] = test: as above; conditions: 500 bis 2000 [g/ha], 15 days after treatment
Summary of the method: as §4

Digitaria sang. [21] = test: as above; conditions: 500 bis 2000 [g/ha], 15 days after treatment
Summary of the method: as §4

Sorghum halep. [22] = test: as above; conditions: 500 bis 2000 [g/ha], 15 days after treatment
Summary of the method: as §4

Sinapis [23] = test: as above; conditions: 500 bis 2000 [g/ha], 15 days after treatment
Summary of the method: as §4

Bromus tectorum [24] = test: as above; conditions: 500 bis 2000 [g/ha], 15 days after treatment
Summary of the method: as §4

Alopecurus myos. [25] = test: as above; conditions: 500 bis 2000 [g/ha], 15 days after treatment
Summary of the method: as §4

Galium aparine [26] = test: as above; conditions: 500 bis 2000 [g/ha], 15 days after treatment
Summary of the method: as §4

Veronica Sp. [27] = test: as above; conditions: 500 bis 2000 [g/ha], 15 days after treatment
Summary of the method: as §4

Amaranthus ret. [28] = test: as above; conditions: 500 bis 2000 [g/ha], 15 days after treatment
Summary of the method: as §4

Avena fatua [29] = test: as above; conditions: 500 bis 2000 [g/ha], 15 days after treatment
Summary of the method: as §4

Solanum nigrum [30] = test: as above; conditions: 500 bis 2000 [g/ha], 15 days after treatment
Summary of the method: as §4

Chenopodium Sp. [31] = test: as above; conditions: 500 bis 2000 [g/ha], 15 days after treatment
Summary of the method: as §4

Stellaria [32] = test: as above; conditions: 500 bis 2000 [g/ha], 15 days after treatment
Summary of the method: as §4

Xanthium Sp. = test: as above; conditions: 500 bis 2000 [g/ha], 15 days after treatment
Summary of the method: as §4

Abutilon [33] = test: as above; conditions: 500 bis 2000 [g/ha], 15 days after treatment
Summary of the method: as §4

Lolium perenne [34] = test: as above; conditions: 500 bis 2000 [g/ha], 15 days after treatment
Summary of the method: as §4

CC1CCc2nc(C3=NC(=O)C(C)(C(C)C)N3)c(C(=O)O)cc2C1 (stereo not shown) [Verbindung 2.01, 2-(5-Isopropyl-5-methyl-1H-imidazol-4-on-2-yl)-6-methyl-5,6,7,8-tetrahydrochinolin-3-carbonsäure]
Toleranz (im Wachstum beeinflusst) (Baumwolle): gute Toleranz (Boniturnoten von 6 bis 9 (insbesondere 7 bis 9) weisen auf eine gute Toleranz (insbesondere bei Kulturpflanzen) hin)
Toleranz (im Wachstum beeinflusst) (Soja [1]): gute Toleranz (Boniturnoten von 6 bis 9 (insbesondere 7 bis 9) weisen auf eine gute Toleranz (insbesondere bei Kulturpflanzen) hin)
Herbizidwirkung (Chrysanthe. leuc. [2]): gute bis sehr gute Herbizidwirkung (Boniturnoten von 1 bis 4 (insbesondere von 1 bis 3) weisen auf eine gute bis sehr gute Herbizidwirkung hin)
Herbizidwirkung (Echinochloa crus galli [3]): gute bis sehr gute Herbizidwirkung (Boniturnoten von 1 bis 4 (insbesondere von 1 bis 3) weisen auf eine gute bis sehr gute Herbizidwirkung hin)
Herbizidwirkung (Digitaria sang. [4]): gute bis sehr gute Herbizidwirkung (Boniturnoten von 1 bis 4 (insbesondere von 1 bis 3) weisen auf eine gute bis sehr gute Herbizidwirkung hin)
Herbizidwirkung (Sorghum halep. [5]): gute bis sehr gute Herbizidwirkung (Boniturnoten von 1 bis 4 (insbesondere von 1 bis 3) weisen auf eine gute bis sehr gute Herbizidwirkung hin)
Herbizidwirkung (Sinapis [6]): gute bis sehr gute Herbizidwirkung (Boniturnoten von 1 bis 4 (insbesondere von 1 bis 3) weisen auf eine gute bis sehr gute Herbizidwirkung hin)
Herbizidwirkung (Bromus tectorum [7]): gute bis sehr gute Herbizidwirkung (Boniturnoten von 1 bis 4 (insbesondere von 1 bis 3) weisen auf eine gute bis sehr gute Herbizidwirkung hin)
Herbizidwirkung (Alopecurus myos. [8]): gute bis sehr gute Herbizidwirkung (Boniturnoten von 1 bis 4 (insbesondere von 1 bis 3) weisen auf eine gute bis sehr gute Herbizidwirkung hin)
Herbizidwirkung (Galium aparine [9]): gute bis sehr gute Herbizidwirkung (Boniturnoten von 1 bis 4 (insbesondere von 1 bis 3) weisen auf eine gute bis sehr gute Herbizidwirkung hin)
Herbizidwirkung (Veronica Sp. [10]): gute bis sehr gute Herbizidwirkung (Boniturnoten von 1 bis 4 (insbesondere von 1 bis 3) weisen auf eine gute bis sehr gute Herbizidwirkung hin)
Herbizidwirkung (Amaranthus ret. [11]): gute bis sehr gute Herbizidwirkung (Boniturnoten von 1 bis 4 (insbesondere von 1 bis 3) weisen auf eine gute bis sehr gute Herbizidwirkung hin)
Herbizidwirkung (Avena fatua [12]): gute bis sehr gute Herbizidwirkung (Boniturnoten von 1 bis 4 (insbesondere von 1 bis 3) weisen auf eine gute bis sehr gute Herbizidwirkung hin)
Herbizidwirkung (Solanum nigrum [13]): gute bis sehr gute Herbizidwirkung (Boniturnoten von 1 bis 4 (insbesondere von 1 bis 3) weisen auf eine gute bis sehr gute Herbizidwirkung hin)
Herbizidwirkung (Chenopodium Sp. [14]): gute bis sehr gute Herbizidwirkung (Boniturnoten von 1 bis 4 (insbesondere von 1 bis 3) weisen auf eine gute bis sehr gute Herbizidwirkung hin)
Herbizidwirkung (Stellaria [15]): gute bis sehr gute Herbizidwirkung (Boniturnoten von 1 bis 4 (insbesondere von 1 bis 3) weisen auf eine gute bis sehr gute Herbizidwirkung hin)
Herbizidwirkung (Ipomoea): gute bis sehr gute Herbizidwirkung (Boniturnoten von 1 bis 4 (insbesondere von 1 bis 3) weisen auf eine gute bis sehr gute Herbizidwirkung hin)
Herbizidwirkung (Abutilon [16]): gute bis sehr gute Herbizidwirkung (Boniturnoten von 1 bis 4 (insbesondere von 1 bis 3) weisen auf eine gute bis sehr gute Herbizidwirkung hin)
Herbizidwirkung (Lolium perenne [17]): gute bis sehr gute Herbizidwirkung (Boniturnoten von 1 bis 4 (insbesondere von 1 bis 3) weisen auf eine gute bis sehr gute Herbizidwirkung hin)
Toleranz (im Wachstum beeinflusst) (Soja [18]): gute Toleranz (Boniturnoten von 6 bis 9 (insbesondere 7 bis 9) weisen auf eine gute Toleranz (insbesondere bei Kulturpflanzen) hin)
Herbizidwirkung (Chrysanthe. leuc. [19]): gute bis sehr gute Herbizidwirkung (Boniturnoten von 1 bis 4 (insbesondere von 1 bis 3) weisen auf eine gute bis sehr gute Herbizidwirkung hin)
Herbizidwirkung (Echinochloa crus galli [20]): gute bis sehr gute Herbizidwirkung (Boniturnoten von 1 bis 4 (insbesondere von 1 bis 3) weisen auf eine gute bis sehr gute Herbizidwirkung hin)
Herbizidwirkung (Digitaria sang. [21]): gute bis sehr gute Herbizidwirkung (Boniturnoten von 1 bis 4 (insbesondere von 1 bis 3) weisen auf eine gute bis sehr gute Herbizidwirkung hin)
Herbizidwirkung (Sorghum halep. [22]): gute bis sehr gute Herbizidwirkung (Boniturnoten von 1 bis 4 (insbesondere von 1 bis 3) weisen auf eine gute bis sehr gute Herbizidwirkung hin)
Herbizidwirkung (Sinapis [23]): gute bis sehr gute Herbizidwirkung (Boniturnoten von 1 bis 4 (insbesondere von 1 bis 3) weisen auf eine gute bis sehr gute Herbizidwirkung hin)
Herbizidwirkung (Bromus tectorum [24]): gute bis sehr gute Herbizidwirkung (Boniturnoten von 1 bis 4 (insbesondere von 1 bis 3) weisen auf eine gute bis sehr gute Herbizidwirkung hin)
Herbizidwirkung (Alopecurus myos. [25]): gute bis sehr gute Herbizidwirkung (Boniturnoten von 1 bis 4 (insbesondere von 1 bis 3) weisen auf eine gute bis sehr gute Herbizidwirkung hin)
Herbizidwirkung (Galium aparine [26]): gute bis sehr gute Herbizidwirkung (Boniturnoten von 1 bis 4 (insbesondere von 1 bis 3) weisen auf eine gute bis sehr gute Herbizidwirkung hin)
Herbizidwirkung (Veronica Sp. [27]): gute bis sehr gute Herbizidwirkung (Boniturnoten von 1 bis 4 (insbesondere von 1 bis 3) weisen auf eine gute bis sehr gute Herbizidwirkung hin)
Herbizidwirkung (Amaranthus ret. [28]): gute bis sehr gute Herbizidwirkung (Boniturnoten von 1 bis 4 (insbesondere von 1 bis 3) weisen auf eine gute bis sehr gute Herbizidwirkung hin)
Herbizidwirkung (Avena fatua [29]): gute bis sehr gute Herbizidwirkung (Boniturnoten von 1 bis 4 (insbesondere von 1 bis 3) weisen auf eine gute bis sehr gute Herbizidwirkung hin)
Herbizidwirkung (Solanum nigrum [30]): gute bis sehr gute Herbizidwirkung (Boniturnoten von 1 bis 4 (insbesondere von 1 bis 3) weisen auf eine gute bis sehr gute Herbizidwirkung hin)
Herbizidwirkung (Chenopodium Sp. [31]): gute bis sehr gute Herbizidwirkung (Boniturnoten von 1 bis 4 (insbesondere von 1 bis 3) weisen auf eine gute bis sehr gute Herbizidwirkung hin)
Herbizidwirkung (Stellaria [32]): gute bis sehr gute Herbizidwirkung (Boniturnoten von 1 bis 4 (insbesondere von 1 bis 3) weisen auf eine gute bis sehr gute Herbizidwirkung hin)
Herbizidwirkung (Xanthium Sp.): gute bis sehr gute Herbizidwirkung (Boniturnoten von 1 bis 4 (insbesondere von 1 bis 3) weisen auf eine gute bis sehr gute Herbizidwirkung hin)
Herbizidwirkung (Abutilon [33]): gute bis sehr gute Herbizidwirkung (Boniturnoten von 1 bis 4 (insbesondere von 1 bis 3) weisen auf eine gute bis sehr gute Herbizidwirkung hin)
Herbizidwirkung (Lolium perenne [34]): gute bis sehr gute Herbizidwirkung (Boniturnoten von 1 bis 4 (insbesondere von 1 bis 3) weisen auf eine gute bis sehr gute Herbizidwirkung hin)
